Data reported in patent US8414989B2, “Cyclodextrin compositions, articles, and methods” (Cellresin Technologies, LLC, priority 2011, dated 2013).

Key:
[1] = Example 2: 1-butene headspace release from UV-cured coating on polyethylene extrusion coated paper; format: physicochemical; conditions: cured 1-butene/c/α-CD coated 5 cm x 10 cm rectangle, 250 mL bottle; for Headspace concentration of 1-butene, Ave.: 50 μL water, average of six
Description: A 20 mL bottle was charged with 9.8 g of UV Coating VP 10169/60 MF-2NE (obtained from Verga GmbH of Aschau am Inn, Germany) and 0.2 g of 1-butene/c/α-CD. The bottle was firmly capped and the components were mixed by shaking the bottle by hand until uniformly dispersed.
About 3 mL of the mixture was removed with a dropper dispensed on a glass pan. A rubber ink roller was used to spread the mixture on the glass and roller. Next, the roller was used to coat the mixture on the coated side of a 20 cm by 20 cm section of polyethylene extrusion coated paper (REYNOLDS® Freezer Paper, 90 microns total thickness). The roller delivered a coating nominal thickness of 0.3 microns. A razor blade was used to cut a 5 cm by 10 cm rectangle from the coated sheet. Then the coated cut rectangle was passed by hand about 10 cm beneath a medium pressure mercury arc lamp operating at 200 watts per inch (79 watts per cm). After 1.5 seconds exposure to the lamp, the cured rectangle was removed. The cured rectangle was allowed to sit on a laboratory bench overnight coating side down.
Six replicate coated rectangles were made in this fashion. Each rectangle was placed in a 250 mL serum bottle. Then the six bottles were sealed with TEFLON® faced silicone septa. The 1-butene headspace concentration was quantified using gas chromatography by removing 250 μL of gas from the sample bottle using a six port, two-position gas sampling valve interfaced directly to the GC column having FID detector.
Then 50 μL of deionized water was injected into each bottle. […] The headspace of each of the six sealed bottles was analyzed at 0.5, 1, 2, 4, 8, 24, and 96 hours after the injection of water wherein about 3 mL of the 250 mL bottle headspace volume was removed for each analysis. In each sampling, the amount of 1-butene released from the UV coated rectangles was quantified by gas chromatography against a 6-point 1-butene calibration curve having a 0.998 correlation coefficient. Table 1 and FIG. 1 illustrate the average of six replicate samples of 1-butene headspace concentration and standard deviation.

[2] = Example 2: headspace analysis of 1-butene/c/α-CD powder (GC-FID); format: physicochemical; conditions: 100 mg 1-butene/c/α-CD powder, 250 mL bottle, no water, about 1 hour
Description: 1-butene/c/α-CD was analyzed by adding 100 mg of the collected and dried precipitate to a 250 mL glass bottle equipped with a septum cap, taking care to ensure that no powder adheres to the walls of the bottle. After about 1 hour, 250 μL of headspace gas was removed from the bottle using a six port, two-position gas sampling valve (Valco #EC6W) interfaced directly to a gas chromatograph (GC; Hewlett Packard 5890) using a RTx-5 GC column, 30 m×0.25 mm I.D., 0.25 μm film (obtained from Restek, Inc., of Bellefonte, Pa.) and equipped with flame ionization detector (FID). […] Then 3 mL of water was injected into the bottle through the septum, and the bottle is placed on a mechanical shaker and mixed vigorously for about 1 hour. After the shaking, 250 μL of the headspace gas is removed and added to an empty 250 mL bottle equipped with a septum cap, wherein the interior of the bottle was purged with nitrogen gas. The headspace concentration of 1-butene was quantified in the second bottle using gas chromatography by removing 250 μL, of gas from the 250 mL bottle using a six port, two-position gas sampling valve (Valco #EC6W) interfaced directly to a GC column having FID detector previously calibrated with a 6-point 1-butene (99.0% pure, Scott Specialty Gases, Plumsteadville, Pa.) calibration curve.

Compound: C=CCC [1-Butene, 1-butene]
- Headspace concentration of 1-butene, Ave. ([1]; 0.5 hours): 0.46 ppm (v/v)
- Headspace concentration of 1-butene, Ave. ([1]; 1 hour): 1.5 ppm (v/v)
- Headspace concentration of 1-butene, Ave. ([1]; 2 hours): 3.0 ppm (v/v)
- Headspace concentration of 1-butene, Ave. ([1]; 4 hours): 4.9 ppm (v/v)
- Headspace concentration of 1-butene, Ave. ([1]; 8 hours): 6.0 ppm (v/v)
- Headspace concentration of 1-butene, Ave. ([1]; 24 hours): 7.6 ppm (v/v)
- Headspace concentration of 1-butene, Ave. ([1]; 96 hours): 7.8 ppm (v/v)
- Headspace concentration of 1-butene ([1]; before water injection): No measurable concentration
- Headspace concentration of 1-butene [2]: No measurable concentration
